According to patent publication US8846044B2, “Stabilizing alkylglycoside compositions and methods thereof” (Aegis Therapeutics, LLC, priority 2006, dated 2014):
Where two headings read alike, the source gives them in different places.

What was measured:
[1] = in water; cited from earlier work
[2] = tested on: HIV BaL; format: cell-based, HIV-1; settings: dried, in water about three days
[3] = tested on: envelop (gp120) binding; settings: 1987 report; cited from earlier work
[4] = tested on: HIV; experiment: Inhibition of HIV infectivity in vitro by stored DAPTA solutions; format: cell-based
Protocol: Aggregation is discovered to be associated with a loss of biological activity in vitro. Typically, the recommended protocol is to have DAPTA stored at 0.1 mM solutions in water at 4° C.
Aggregation is reduced in the presence of trifluoroethanol (TFE). TFE was selected because of its property of reducing certain types of protein-protein interactions. DAPTA was dissolved in either distilled water, or solutions containing between 60% and 100% TFE. Aggregation was evaluated by assaying inhibition of HIV infectivity, in vitro. […] Also, TFE is capable of disassociating preformed aggregates of DAPTA. Aggregates of DAPTA, formed in distilled water were disrupted by addition of TFE to 80%, as measured by EM.

[5] = DAPTA fibril formation in solution (EM, FTIR, CD, dye binding); format: physicochemical; settings: for Time to form aggregates: distilled water, 10 mg/ml
Protocol: Preparation of DAPTA solutions. DAPTA was dissolved in water, and solutions maintained at various temperatures and times. To prepare fibrils, DAPTA was prepared at 10 mgs/mL in water and stored overnight at 4° C.
Determining fibril formation.
Congo red was dissolved in PBS (5 mM potassium phosphate, 150 mM NaCl, pH 7.4) to a concentration of 7 ug/mL. The solution was chilled to 4° C., and DAPTA added as a 10 mg/mL stock solution in water, to yield final peptide concentration in the dye solution of 0.48 mg/mL. Peptide solution immediately after dissolution of powder was compared with an aged stock solution containing aggregated peptides. Spectra were collected between 400-700 nm, at 4° C.
Fibril formation of peptide T or analog thereof can also be determined using Circular Dichroism (CD) spectroscopy. Ten mg/mL solutions in water of either freshly prepared peptide or containing fibrillar aggregates was added to distilled water at 4° C. to a concentration of 50 ug/mL. CD spectra were collected on a Jasco model J-810 spectrometer using a 0.1 cm path length quartz cuvette, between 190-250 nm, with a […] interval, and a response time of 2 sec.
Still another method of determining fibril formation of peptide T or analog thereof is performed using Fourier Transform Infrared (FTIR) Spectroscopy. DAPTA was dissolved in deuterated water, to a concentration of 10 mg/ml and incubated under temp and time conditions that promote fibril formation. 25 ul samples were then placed in a pre-cooled transmission cell with NaCl windows separated by a 6 um spacer. FTIR spectra were collected on a BioRad FTS-175C Fourier transform spectrometer in transmission mode using a DTGS detector. 2506 interferograms were recorded with a 2 cm-1 resolution. Water vapor was subtracted and the spectra baselines corrected.

[6] = tested on: people with AIDS; settings: cited from earlier work; for Patients with improved neuro-psychological performance: early AIDS dementia (Kosten et al., 1997)
[7] = tested on: HIV BaL; format: cell-based, HIV-1; settings: dried
Protocol: Inhibition of HIV infection is studied by utilizing an infection assay in which GHOST CD4 CCR5 cells are infected with HIV BaL, an R5 tropic isolate (Ruff, M R et al., 2001). Infection is detected via viral induction of the hGFP gene (green fluorescent protein) 48 hrs post-infection. Trays are measured in a plate reader to determine fluorescence intensity. All infections are performed by adding fresh culture medium containing approximately 1,000 infectious units of HIV-1 per well (96-well plates). […]
The peptide was dissolved in the indicated concentration of TFE in water and then shaken or agitated for 24 hrs at 37° C. The peptide was subsequently dried down, and the TFE/water mixture removed under vacuum. […] Although TFE is removed, residual traces of TFE within acceptable range for human consumption may remain.
Inhibition of HIV infection was studied by utilizing an infection assay using GHOST CD4 as previously described by Ruff, M R et al., 2001. CCR5 cells are infected with HIV BaL, an R5 tropic isolate. Infection is detected via viral induction of the hGFP gene (green fluorescent protein) about 48 hours post-infection. Trays were measured in a plate reader to determine fluorescence intensity. All infections were performed by adding fresh culture medium containing approximately 1,000 infectious units of HIV-1 per well (96-well plates).
Again, the peptide was then evaporated or dried down, and resuspended in an aqueous solution, e.g., water for about three days, and tested for anti-HIV activity, as above.

[8] = tested on: isolated nasal cilia; settings: cited from earlier work
[9] = tested on: nasal mucosa; settings: cited from earlier work
[10] = Light scatter of beta interferons, Pramlintide and calcitonin with and without dodecyl maltoside; settings: 37° C., 150 RPM, 38 day test period

Molecule: CCCCCCCCCCCCCCO[C@@H]1O[C@H](CO)[C@@H](O[C@@H]2O[C@@H](CO)[C@H](O)[C@@H](O)[C@@H]2O)[C@H](O)[C@H]1O (stereo in doubt) [Tetradecyl maltoside]
- CMC [1]: 0.01 mM

Molecule: CCCCCCCCCCCCCO[C@@H]1O[C@H](CO)[C@@H](OC2OC(CO)C(O)C(O)C2O)[C@H](O)[C@H]1O (stereo in doubt) [Tridecyl maltoside]
- CMC [1]: 0.03 mM

Molecule: CCCCCCCCCCO[C@@H]1O[C@H](CO)[C@@H](O[C@H]2O[C@H](CO)[C@@H](O)[C@H](O)[C@H]2O)[C@H](O)[C@H]1O [Decyl maltoside]
- CMC [1]: 1.8 mM

Molecule: CCCCCCCCCCCCO[C@@H]1O[C@H](CO)[C@@H](O[C@H]2O[C@H](CO)[C@@H](O)[C@H](O)[C@H]2O)[C@H](O)[C@H]1O [Dodecyl β-D-maltoside]
- CMC [1]: 0.17 mM

Molecule: CCCCCCCCO[C@@H]1O[C@H](CO)[C@@H](O[C@H]2O[C@H](CO)[C@@H](O)[C@H](O)[C@H]2O)[C@H](O)[C@H]1O [Octyl maltoside]
- CMC [1]: 19.5 mM

Molecule: D-ala^1-Peptide T-amide [DAPTA]
- Percent Reduction in HIV Infection ([2]; 80% TFE, shaken about 24 hours at Room Temp.): 70 ± 6%
- Percent Reduction in HIV Infection ([2]; about 80% TFE/water, shaken 12 hrs at 37 degrees): 70 ± 4%
- Percent Reduction in HIV Infection ([2]; about 80% TFE/water, shaken 48 hrs at 37 degrees): 100 ± 3%
- Concentration that blocks envelop (gp120) binding and inhibits viral infectivity [3]: 10 pM
- Time to substantial loss of activity (HIV uptake inhibition in vitro) ([4]; 0.1 mM solution in water at 4° C.): about 6 weeks
- Activity after storage (inhibition of HIV infectivity in vitro) ([4]; stored in TFE between 60% and 100% versus water): retained more activity
- Dissociation of aggregates on warming ([5]; 5 mg/mL in 0.45% NaCl, warmed to 37° C. for about 17-24 hours with shaking): reversibly dissociate
- Time to observable fibril formation ([5]; 0.9% saline (10 mg/mL), room or ambient temperature): ≤ 48 h
- Time to observable fibrillization ([5]; 0.9% saline (10 mg/mL), stored at 4° C.): less than 1 hour
- Effect of TFE on preformed aggregates, by EM ([5]; aggregates formed in distilled water, TFE added to 80%): disrupted
- Time to form aggregates ([5]; 4 deg. C.): ≤ 2 h
- Time to form aggregates ([5]; room temperature): 24 to 170 h
- Neuropsychological performance versus placebo ([6]; 2 mg three times daily intranasally, at least four months (Heseltine et al., 1998)): no difference in neuropsychological performance
- Patients with improved neuro-psychological performance ([6]; high dose (15 mg daily)): 4/5
- Persistently infected monocyte reservoir ([6]; human, in vivo): greatly reduced or flushed to undetectable levels in all patients
- Patients with improved neuro-psychological performance ([6]; low dose (1.5 mg daily)): 1/4
- Lower limb pain in HIV-related peripheral neuropathy ([6]; nine individuals, subcutaneously 10 mg daily (MacFadden and Doob 1991)): complete or subjectively significant resolution of lower limb pain
- Adverse drug effects ([6]; nine individuals, subcutaneously (MacFadden and Doob 1991)): No adverse drug effects were noted
- Cognitive and neuromotor function versus controls ([6]; phase I, 0.1 to 3.2 mg/kg/day intravenously, moderate impairment (Bridge et al. 1989)): Cognitive and neuromotor function improved
- Painful peripheral neuropathy versus placebo ([6]; phase II double-blind, 6 mg/day for 12 weeks (Simpson et al. 1996)): no statistically significant differences
- Percent Reduction in HIV Infection ([7]; 0.1 nM DAPTA, TFE Concentration 0 %, shaken 24 hrs at 37° C., stored in water about 3 days): 0 ± 2%
- Percent Reduction in HIV Infection ([7]; 0.1 nM DAPTA, TFE Concentration 20 %, shaken 24 hrs at 37° C., stored in water about 3 days): 0 ± 3%
- Percent Reduction in HIV Infection ([7]; 0.1 nM DAPTA, TFE Concentration 40 %, shaken 24 hrs at 37° C., stored in water about 3 days): 0 ± 2%
- Percent Reduction in HIV Infection ([7]; 0.1 nM DAPTA, TFE Concentration 60 %, shaken 24 hrs at 37° C., stored in water about 3 days): 20 ± 4%
- Percent Reduction in HIV Infection ([7]; 0.1 nM DAPTA, TFE Concentration 80 %, shaken 24 hrs at 37° C., stored in water about 3 days): 100 ± 5%
- Percent Reduction in HIV Infection ([7]; 0.1 nM DAPTA, TFE Concentration 100 %, shaken 24 hrs at 37° C., stored in water about 3 days): 98 ± 3%
- Percent Reduction in HIV Infection ([7]; 80% TFE, shaken about 24 hours at 37 ° C., in water about three days): 100 ± 5%
- Percent Reduction in HIV Infection ([7]; about 80% TFE/water, shaken 24 hrs at 37 degrees, in water about three days): 100 ± 3%

Molecule: Sucrose dodecanoate
- CMC [1]: 0.3 mM

Molecule: benzalkonium chloride [BAC]
- Effect on isolated nasal cilia in vitro [8]: ciliotoxic
- Saccharine transport time and proinflammatory indicators in vivo [9]: did not alter saccharine transport time
- Damage to the nasal mucosa ([9]; in vivo): no significant damage to the nasal mucosa
- Nasal irritation ([9]; in vivo): no discernible negative effects
- Nasal mucosal function ([9]; in vivo): no detectable effect on the nasal mucosal function

B1: Betaseron®: beta interferon 1b, Lot number YA0549A (protein, UniProt P01574 22-187, looked up, variant C17S)
Interferon beta: MSYNLLGFLQRSSNFQSQKLLWQLNGRLEYCLKDRMNFDIPEEIKQLQQFQKEDAALTIYEMLQNIFAIFRQDSSSTGWNETIVENLLANVYHQINHLKTVLEEKLEKEDFTRGKLMSSLHLKRYYGRILHYLKAKEYSHCAWTIVRVEILRNFYFINRLTGYLRN
modifications: interferon beta-1b, lacks N-terminal Met
- Aggregation as increase in light scatter [10]: much larger increase in light scatter
- Stabilization by 0.2% Dodecyl maltoside, in words ([10]; light scatter at 500 nm): greatest stabilization effect
